Measured values as given in patent US4442031A, “Immunopotentiating peptides” (Hoffmann-La Roche Inc., priority 1983, dated 1984).
Where no end group is shown, it is not given here.

How the values were obtained:
Assay type in all cases: in vivo
[1] = test system: Candida albicans ATCC 10231; assay: Protective activity against Candida albicans infection in 5-FU immunosuppressed mice; conditions: for Survivors Day 8 / Survivors Day 15: ddY mice; for Survivors at Day 8 after infection: Table 6, i.p., ten times with 5-FU, control 1/7
Description: In a series of examples, the compounds of formula I were tested for protective activity against opportunistic infections in immunosuppressed mice. Female ddY mice (6 weeks old) weighing about 26 g were pretreated daily for ten days with 5-fluorouracil (5-FU) (25 mg/kg/day, i.p.) and with thymosin α1 or with compounds of formula I (i.p.) at varying dosages. The mice were then infected with Candida albicans ATCC 10231 (1×10^5 cells or more) at 24 hour after the last treatment. One control group was administered 5-FU and saline solution and a second control group received neither 5-FU nor compound of formula I prior to infection with Candida albicans. The number of animals surviving eight days after infection with Candida albicans and 15 days after infection with Candida albicans is presented in the table below.
(§1) Normal mice (female ddY mice, 6 weeks old) were highly tolerant to infection with Candida albicans ATCC 10231 at relatively low dose (1-2×10^5 cells, iv.). However, when pretreated daily for ten times with 5-FU (25 mg/kg/day, ip.), the mice were susceptible to infection as shown in Table 6. […] Compound A was also shown to be active against infection with Pseudomonas aeruginosa 5E81-1 and Listeria monocytogenes EGD in the immunosuppressed mice (see Tables 7 and 8).

[2] = test system: delayed-type hypersensitivity (DTH); assay: Restoration of delayed-type hypersensitivity (DTH) decreased by 5-FU in BDF1 mice; conditions: for DTH response %: % of control
Description: A poor prognosis is often observed in cancer patients with impaired immune response. Impaired immune response can be caused by the cancer itself, by chemotherapeutic agents, or by radiotherapy. Thus, therapeutic agents which restore impaired immune response in cancer patients are expected to play an important role in combination therapy. The restoration activity of the compounds of the invention on impaired cell-mediated immunity was determined by measuring the enhancement of delayed-type hypersensitivity (DTH), which was decreased to a great extent in mice treated with 5-fluorouracil (5-FU).
Female BDF1 mice (20-22 g, 11-12 weeks old) received (i.p. or p.o.) the compound to be tested on consecutive days one day before, concurrently with and 1 and 2 days after the 5-FU treatment. For DTH measurement, 10^8 chicken red blood cells (CRBC) were injected i.p. (or s.c. into the left hind footpad) and challenged s.c. into the right hind footpad at 3 and 7 days after the 5-FU treatment, respectively. Restoration activity was calculated by the following formula from the DTH response observed in the control group, 5-FU treated group treatment and the Test group treated both with 5-FU and the compound of the invention. Restoration activity was calculated by the formula: [formula]

[3] = test system: Pseudomonas aeruginosa 5E81-1; assay: Protection against Pseudomonas aeruginosa infection in 5-FU immunosuppressed mice; conditions: for Survivors at Day 15 after infection: Table 7, i.p., 5-FU immunosuppressed mice, control 0/30
Description: as §1

[4] = test system: Listeria monocytogenes EGD; assay: Protection against Listeria monocytogenes infection in 5-FU immunosuppressed mice; conditions: for Survivors at Day 15 after infection: Table 8, i.p., 5-FU immunosuppressed mice, control 2/10
Description: as §1

[5] = test system: Listeria monocytogenes EGD; assay: Growth of Listeria monocytogenes in liver of P388 tumor-bearing mice; conditions: for Growth of Bacteria (log10 /liver): Tumor-bearing CDF1 mice, i.p., seven times before infection, 3 days after infection, control 7.1
Description: The immunocompetence of tumor-bearing mice is known to be frequently deficient. This is illustrated by the fact that Listeria monocytogenes EGD grew considerably in tumor-bearing mice as compared to normal mice (see Table 9). Male CDF1 mice (6 weeks old) transplanted with P388 leukemia (3×10^5 cells, footpad) were infected with Listeria monocytogenes (2×10^3 cells, iv.) 7 days after the transplant. Three days thereafter the number of the bacteria grown in liver was counted.

P388 leukemia = assay: Protective activity against P388 leukemia growth in 5-FU immunosuppressed mice; conditions: for Mean Survival days (days ± S.D.): CDF1 mice, 5-FU +, P388 +, 5-FU + saline 4.1
Description: The treatment with cytostatic agents often decreases immunocompetence and consequently increases incidence of metastasis of tumor in cancer patients. […] In the experiment shown in Table 10, male CDF1 mice (6 week old) were treated daily for 8 times with or without 5-FU (28 mg/kg/day ip.) and then transplanted subcutaneously with P388 leukemic cells (3×10^5) into footpad 24 hours later. When pretreated with 5-FU, mice died very quickly at 4 days, while normal mice survived about 23 days after the transplant. […] Thymosin α1 and compound A may improve the immunodefense system against metastatic tumor growth in cancer patients who are receiving immunosuppressive chemotherapy. In combination with thymosin α1 or compound A, more extensive cancer chemotherapy for a longer duration may be possible.
^(1) CDF1 mice were pretreated daily for 8 times from Day 8 to
with 5FU (28 mg/kg/day, ip.).
^(2) Thymosin α1 or Compound A were administered daily for
14 times from Day 8 to 5 by ip. route.
^(3) P388 leukemic cells (3 × 10^5) were inoculated into
^(4) Survival days after the inoculation of the leukemic cells.

[6] = Example 8, 0.4 μg/kg i.p. daily for ten days with 5-FU
[7] = Example 8, 4.0 μg/kg i.p. daily for ten days with 5-FU
[8] = Example 8, 40.0 μg/kg i.p. daily for ten days with 5-FU
[9] = Example 10, 0.04 μg/kg i.p. daily for ten days with 5-FU
[10] = Example 10, 0.4 μg/kg i.p. daily for ten days with 5-FU
[11] = Example 10, 4.0 μg/kg i.p. daily for ten days with 5-FU
[12] = Example 11, 0.04 μg/kg i.p. daily for ten days with 5-FU
[13] = Example 11, 0.4 μg/kg i.p. daily for ten days with 5-FU
[14] = Example 11, 4.0 μg/kg i.p. daily for ten days with 5-FU
[15] = Table 2, 5-FU plus 0.05 μg/kg/day, i.p.
[16] = Table 2, 5-FU plus 0.5 μg/kg/day, i.p.
[17] = Table 2, 5-FU plus 5.0 μg/kg/day, i.p.
[18] = Table 3, second experiment, 5-FU plus 0.5 μg/kg/day, i.p.
[19] = Table 4, 5-FU plus 0.5 μg/kg/day p.o.
[20] = Table 4, 5-FU plus 5.0 μg/kg/day p.o.
[21] = Table 4, 5-FU plus 50.0 μg/kg/day p.o.

Substance: KKEVVE [Compound A, L-Lysyl-L-lysyl-L-glutamyl-L-valyl-L-valyl-L-glutamic acid]
- Survivors Day 8 [1, 6]: 6/7
- Survivors Day 15 [1, 6]: 5/7
- Survivors Day 8 [1, 7]: 5/7
- Survivors Day 15 [1, 7]: 4/7
- Survivors Day 8 [1, 8]: 5/7
- Survivors Day 15 [1, 8]: 2/7
- Survivors Day 8 ([1]; Example 9, 0.4 μg/kg i.p. daily for ten days with 5-FU): 6/7
- Survivors Day 8 ([1]; Example 9, 4.0 μg/kg i.p. daily for ten days with 5-FU): 5/7
- Survivors Day 8 ([1]; Example 9, 40.0 μg/kg i.p. daily for ten days with 5-FU): 4/7
- Survivors Day 8 [1, 9]: 6/10
- Survivors Day 15 [1, 9]: 4/10
- Survivors Day 8 [1, 10]: 9/10
- Survivors Day 15 [1, 10]: 8/10
- Survivors Day 8 [1, 11]: 9/10
- Survivors Day 15 [1, 11]: 8/10
- Survivors Day 8 [1, 12]: 6/10
- Survivors Day 15 [1, 12]: 4/10
- Survivors Day 8 [1, 13]: 9/10
- Survivors Day 15 [1, 13]: 8/10
- Survivors Day 8 [1, 14]: 9/10
- Survivors Day 15 [1, 14]: 8/10
- Survivors at Day 8 after infection ([1]; 0.4 μg/kg/day): 6/7
- Survivors at Day 8 after infection ([1]; 4 μg/kg/day): 5/7
- Survivors at Day 8 after infection ([1]; 40 μg/kg/day): 4/7
- Restoration Activity(%) [2, 15]: 34.4%
- DTH response % [2, 15]: 70.7%
- DTH response av. ± S.E. (0.1 mm) ([2]; Table 2, 5-FU plus 0.05 μg/kg/day, i.p., control 10.3, 5-FU alone 5.7): 7.3 ± 0.9 0.1 mm
- Restoration Activity(%) [2, 16]: 66.6%
- DTH response % [2, 16]: 84.8%
- DTH response av. ± S.E. (0.1 mm) ([2]; Table 2, 5-FU plus 0.5 μg/kg/day, i.p., control 10.3, 5-FU alone 5.7): 8.7 ± 1.2 0.1 mm
- Restoration Activity(%) [2, 17]: 56.6%
- DTH response % [2, 17]: 80.7%
- DTH response av. ± S.E. (0.1 mm) ([2]; Table 2, 5-FU plus 5.0 μg/kg/day, i.p., control 10.3, 5-FU alone 5.7): 8.3 ± 0.8 0.1 mm
- DTH response av. ± S.E. (0.1 mm) ([2]; Table 3, second experiment (control 15.1, 5-FU alone 8.1), 5-FU plus 0.5 μg/kg/day, i.p.): 10.8 ± 0.8 0.1 mm
- Restoration Activity(%) [2, 18]: 39.1%
- DTH response % [2, 18]: 71.6%
- DTH response av. ± S.E. (0.1 mm) ([2]; Table 4 (control 7.7, 5-FU alone 5.6), 5-FU plus 0.5 μg/kg/day p.o.): 5.4 ± 0.9 0.1 mm
- DTH response av. ± S.E. (0.1 mm) ([2]; Table 4 (control 7.7, 5-FU alone 5.6), 5-FU plus 5.0 μg/kg/day p.o.): 5.9 ± 1.0 0.1 mm
- DTH response av. ± S.E. (0.1 mm) ([2]; Table 4 (control 7.7, 5-FU alone 5.6), 5-FU plus 50.0 μg/kg/day p.o.): 8.7 ± 1.2 0.1 mm
- Restoration Activity(%) [2, 19]: 0%
- DTH response % [2, 19]: 70.1%
- Restoration Activity(%) [2, 20]: 14.3%
- DTH response % [2, 20]: 76.6%
- Restoration Activity(%) [2, 21]: 147.6%
- DTH response % [2, 21]: 113%
- DTH restoration activity (in words) ([2]; administered orally, Table 4): active when administered orally
- DTH restoration activity (in words) ([2]; i.p., Tables 2 and 3): equal or in some instances, greater activity than did thymosin α1 at lower doses
- Survivors at Day 15 after infection ([3]; 0.04 μg/kg/day): 5/20
- Survivors at Day 15 after infection ([3]; 0.4 μg/kg/day): 12/30
- Survivors at Day 15 after infection ([3]; 4 μg/kg/day): 7/30
- activity against infection (in words) ([3]; immunosuppressed mice): active
- Survivors at Day 15 after infection ([4]; 0.04 μg/kg/day): 8/10
- Survivors at Day 15 after infection ([4]; 0.4 μg/kg/day): 6/10
- Survivors at Day 15 after infection ([4]; 4 μg/kg/day): 6/10
- activity against infection (in words) ([4]; immunosuppressed mice): active
- Growth of Bacteria (log10 /liver) ([5]; 0.4 μg/kg/day): 6.0 log10 /liver
- Growth of Bacteria (log10 /liver) ([5]; 4 μg/kg/day): 5.7 log10 /liver
- growth of the bacteria in liver (in words) ([5]; tumor-bearing mice pretreated daily for seven times before infection): growth of the bacteria was suppressed
- Mean Survival days (days ± S.D.) (P388 leukemia; 0.4 μg/kg/day ip. 14 times): 22.3 ± 2.8 days
- Mean Survival days (days ± S.D.) (P388 leukemia; 4 μg/kg/day ip. 14 times): 23.7 ± 2.9 days
- survival days (in words) (P388 leukemia; daily treatment in addition to 5-FU, 8 times before and 6 times after the transplant): increased the survival days to the level similar to that obtained in normal mice
